Reference: publication PMC9090415, “Discovery of small molecule inhibitors of Plasmodium falciparum apicoplast DNA polymerase” (Journal of Enzyme Inhibition and Medicinal Chemistry, 2022)

Molecular target: P. falciparum apicoplast DNA polymerase (Pf-apPOL) (Plasmodium falciparum, UniProt Q8ILY1)
Test: Fluorescence-based high-throughput DNA polymerase assay (molecular beacon), primary screen and dose-response
Format: biochemical
Conditions: for IC50: supplemental file 2, sheet IC50 nontoxic compounds, Pf-apPOL; for DNA Pol: unit not given, 90 min, 10 µM
In short: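 Single-point screening used 10 µM compound with 20 nM polymerase, 20 nM hairpin substrate and 6 µM dNTPs for 90 min at 25 °C. Confirmatory titrations (2.5–80 µM) followed fluorescence at three times, and IC50 was derived from a fit including a cooperativity term n.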

P. falciparum apicoplast DNA polymerase (Pf-apPOL), sequence (Q8ILY1 entry or part of it): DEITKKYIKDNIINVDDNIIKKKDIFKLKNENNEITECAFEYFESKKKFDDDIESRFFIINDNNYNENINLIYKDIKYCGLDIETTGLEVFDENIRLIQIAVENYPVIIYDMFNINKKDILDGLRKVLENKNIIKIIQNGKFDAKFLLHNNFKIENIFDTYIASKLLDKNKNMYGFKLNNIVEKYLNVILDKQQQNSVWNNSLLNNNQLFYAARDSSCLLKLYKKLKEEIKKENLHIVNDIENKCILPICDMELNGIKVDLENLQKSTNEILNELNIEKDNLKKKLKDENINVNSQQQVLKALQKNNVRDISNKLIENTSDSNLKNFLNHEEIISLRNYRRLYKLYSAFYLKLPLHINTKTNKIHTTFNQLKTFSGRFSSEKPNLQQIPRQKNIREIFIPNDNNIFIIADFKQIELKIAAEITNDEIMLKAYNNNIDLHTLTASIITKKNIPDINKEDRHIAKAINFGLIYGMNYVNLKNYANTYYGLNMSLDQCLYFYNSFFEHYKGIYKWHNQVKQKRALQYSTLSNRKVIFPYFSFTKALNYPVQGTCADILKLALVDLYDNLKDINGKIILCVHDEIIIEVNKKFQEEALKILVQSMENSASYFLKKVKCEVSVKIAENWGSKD

SMILES: Cc1cc(C)nc(Nc2nc(CC(=O)Nc3nc(-c4ccco4)cs3)cs2)n1 [Molecule 92]
- IC50: 8.58 µM

SMILES: CC(C)(C)OC(=O)COc1ccc2cc(-c3ccccc3)c(=O)oc2c1 [Molecule 81]
- IC50: 35 µM

SMILES: CCCCC(=O)N1CCc2c(nc3cc(-c4ccccc4Cl)[nH]n3c2=O)C1 [Molecule 37]
- IC50: 10.4 µM

SMILES: COc1ccc(C(=O)N2CCc3c(nc4cc(-c5ccccc5Cl)[nH]n4c3=O)C2)cn1 [Molecule 26]
- IC50: 9.65 µM

SMILES: Nc1c(S(=O)(=O)O)cc(Nc2ccccc2)c2c1C(=O)c1ccccc1C2=O [KU0045407]
- DNA Pol ('DNA Pol' of the 186 hits list (primary screen result)): 49
- % inhibition Apo pol 10' (DRC-1, concentration 2.5): 39.3278%
- % inhibition Apo pol 10' (DRC-1, concentration 5): 47.4944%
- % inhibition Apo pol 10' (DRC-1, concentration 10): 57.4142%
- % inhibition Apo pol 10' (DRC-1, concentration 20): 88.2417%
- % inhibition Apo pol 10' (DRC-1, concentration 40): 98.9011%
- % inhibition Apo pol 10' (DRC-1, concentration 80): 101.451%
- % inhibition Apol 90' (DRC-1, 90', concentration 2.5): 14.8722%
- % inhibition Apol 90' (DRC-1, 90', concentration 5): 18.228%
- % inhibition Apol 90' (DRC-1, 90', concentration 10): 36.638%
- % inhibition Apol 90' (DRC-1, 90', concentration 20): 73.4923%
- % inhibition Apol 90' (DRC-1, 90', concentration 40): 92.3698%
- % inhibition Apol 90' (DRC-1, 90', concentration 80): 99.716%
- % inhibition apPOL 180' (DRC-1, 180', concentration 2.5): 5.356%
- % inhibition apPOL 180' (DRC-1, 180', concentration 5): 9.027%
- % inhibition apPOL 180' (DRC-1, 180', concentration 10): 27.7566%
- % inhibition apPOL 180' (DRC-1, 180', concentration 20): 64.7558%
- % inhibition apPOL 180' (DRC-1, 180', concentration 40): 88.0246%
- % inhibition apPOL 180' (DRC-1, 180', concentration 80): 99.8487%
- % inhibition Apo pol 5' (DRC-2, 5', concentration 10 (unit not given)): 39%
- % inhibition Apo pol 5' (DRC-2, 5', concentration 40 (unit not given)): 75%
- % inhibition Apol 40' (DRC-2, 40', concentration 5 (unit not given)): 15%
- % inhibition Apol 40' (DRC-2, 40', concentration 20 (unit not given)): 81%
- % inhibition Apol 40' (DRC-2, 40', concentration 40 (unit not given)): 86%
- % inhibition ApPOL 90' (DRC-2, 90', concentration 10 (unit not given)): 39%
- % inhibition ApPOL 90' (DRC-2, 90', concentration 20 (unit not given)): 81%
- % inhibition apPOL 180' (DRC-2, 180', concentration 20 (unit not given)): 75%
- % inhibition apPOL 180' (DRC-2, 180', concentration 80 (unit not given)): 86%
- % inhibition Apo pol 5' (DRC-2, 5', concentration 2.5): 2.61%
- % inhibition Apo pol 5' (DRC-2, 5', concentration 5): 15%
- % inhibition Apo pol 5' (DRC-2, 5', concentration 5 (unit not given)): 15%
- % inhibition Apo pol 5' (DRC-2, 5', concentration 10): 39%
- % inhibition Apo pol 5' (DRC-2, 5', concentration 20): 73%
- % inhibition Apo pol 5' (DRC-2, 5', concentration 40): 75%
- % inhibition Apo pol 5' (DRC-2, 5', concentration 80): 62%
- % inhibition Apol 40' (DRC-2, 40', concentration 2.5): 1.87%
- % inhibition Apol 40' (DRC-2, 40', concentration 5): 15%
- % inhibition Apol 40' (DRC-2, 40', concentration 10): 40%
- % inhibition Apol 40' (DRC-2, 40', concentration 20): 81%
- % inhibition Apol 40' (DRC-2, 40', concentration 40): 86%
- % inhibition Apol 40' (DRC-2, 40', concentration 80): 80%
- % inhibition ApPOL 90' (DRC-2, 90', concentration 2.5): 2.58%
- % inhibition ApPOL 90' (DRC-2, 90', concentration 5): 14%
- % inhibition ApPOL 90' (DRC-2, 90', concentration 10): 39%
- % inhibition ApPOL 90' (DRC-2, 90', concentration 20): 81%
- % inhibition ApPOL 90' (DRC-2, 90', concentration 40): 87%
- % inhibition ApPOL 90' (DRC-2, 90', concentration 80): 83%
- % inhibition apPOL 180' (DRC-2, 180', concentration 2.5): 3.63%
- % inhibition apPOL 180' (DRC-2, 180', concentration 5): 5%
- % inhibition apPOL 180' (DRC-2, 180', concentration 10): 30%
- % inhibition apPOL 180' (DRC-2, 180', concentration 20): 75%
- % inhibition apPOL 180' (DRC-2, 180', concentration 40): 85%
- % inhibition apPOL 180' (DRC-2, 180', concentration 80): 86%
- DNA Pol (primary screen value of the library well): 49
